The values that follow come from patent publication US6391904B1, “Iminoguanidine derivatives, preparation method, use as medicines” (Aventis Pharma S.A., priority 1998, dated 2002).

Each structure is given as a SMILES string.

The test deals with human αvβ3 receptor (Homo sapiens, UniProt P05106+P06756). Nature of the test: Kistrin/Vitronectin Receptor (αvβ3) ELISA test. It counts as binding. Particulars: Kistrin-coated plates, 3 hours at ambient temperature, 4B12-HRP detection, read-out: K/VnR IC50. The procedure:
Pharmacological Test: Kistrin/Vitronectin Receptor (αvβ3) ELISA Test Protocol:
96-well MaxiSorp plates are coated overnight at […] with 100 μl of Kistrin at 1 μg/ml (dilution in coating buffer: 0.05M carbonate)/NaOH pH 9.6. The next day, the wells are emptied and the ligands (kistrin) are then fixed (fixation buffers: PBS containing 0.5% BSA (pH=7.4)) for 1 hour at ambient temperature under gentle agitation of 125 rpm. The wells are washed six times (washing buffer: PBS containing 0.05% Tween 20 (pH 7.7) then the following is added per well and in this order:
40 μl of incubation buffer
10 μl of the dilution of the product to be tested (the products are diluted in a 50:50 DMSO/water mixture)
50 μl of human αvβ3 receptor (cf Pytel et al. Methods Enzymol. (1987) 144 (Dilution in incubation buffer, adapted according to the batch of receptor and according to the ligand). The ligand, the αvβ3 receptor and the products to be studied are incubated for 3 hours at ambient temperature with gentle agitation of 125 rpm.
The wells are again washed six times, then incubated for 2 hours at ambient temperature with mild agitation of 125 rpm, in the presence of 100 μl of anti-receptor antibody coupled to a peroxidase (The 4B12-HRP antibody is diluted in incubation buffer (50 mM TRIS pH 7.4; 0.5% BSA; 0.05% Tween 20; 1 mM MnCl2; 50 μM CaCl2; 50 μM MgCl2; 100 mM NaCl). The dilution is to be adapted according to the batch of receptor.
The wells are then washed six times before measurement of the ligand-receptor bond is carried out using a peroxidase developer kit (TBM Microwell Peroxidase Substrate System Kirkegaard; Ref cat 50-76-00).
This kit contains a flask A of substrate (3,3′,5,5′-tetramethylebenzidine at 0.4 g/l) and a flask B (H2O2 to 0.02% in Citrate/Citric acid). Extemporaneously, one volume of A is mixed with one volume of B, then the reaction mixture is distributed at a rate of 100 μl/wells.
The enzymatic reaction develops between 6 to 10 minutes for Kistrin/αvβ3 then its development is stopped by the addition of 100 μl of 1M phosphoric acid. The optical density is determined at 450 nm.
Expression of the Results
The following curve is plotted: the bond percentage as a function of the logarithm of each concentration of the tested product.
For each product IC50 is determined according to the following formula: IC50=(B0+Bmin)/2 B0=Maximum bond in the absence of any product Bmin=Minimum bond in the presence of the highest concentration of the product.
Background: In an ELISA, binding on a coated surface is turned into a signal by an enzyme label.

human αvβ3 receptor, sequence (P06756 31-889 limits assumed): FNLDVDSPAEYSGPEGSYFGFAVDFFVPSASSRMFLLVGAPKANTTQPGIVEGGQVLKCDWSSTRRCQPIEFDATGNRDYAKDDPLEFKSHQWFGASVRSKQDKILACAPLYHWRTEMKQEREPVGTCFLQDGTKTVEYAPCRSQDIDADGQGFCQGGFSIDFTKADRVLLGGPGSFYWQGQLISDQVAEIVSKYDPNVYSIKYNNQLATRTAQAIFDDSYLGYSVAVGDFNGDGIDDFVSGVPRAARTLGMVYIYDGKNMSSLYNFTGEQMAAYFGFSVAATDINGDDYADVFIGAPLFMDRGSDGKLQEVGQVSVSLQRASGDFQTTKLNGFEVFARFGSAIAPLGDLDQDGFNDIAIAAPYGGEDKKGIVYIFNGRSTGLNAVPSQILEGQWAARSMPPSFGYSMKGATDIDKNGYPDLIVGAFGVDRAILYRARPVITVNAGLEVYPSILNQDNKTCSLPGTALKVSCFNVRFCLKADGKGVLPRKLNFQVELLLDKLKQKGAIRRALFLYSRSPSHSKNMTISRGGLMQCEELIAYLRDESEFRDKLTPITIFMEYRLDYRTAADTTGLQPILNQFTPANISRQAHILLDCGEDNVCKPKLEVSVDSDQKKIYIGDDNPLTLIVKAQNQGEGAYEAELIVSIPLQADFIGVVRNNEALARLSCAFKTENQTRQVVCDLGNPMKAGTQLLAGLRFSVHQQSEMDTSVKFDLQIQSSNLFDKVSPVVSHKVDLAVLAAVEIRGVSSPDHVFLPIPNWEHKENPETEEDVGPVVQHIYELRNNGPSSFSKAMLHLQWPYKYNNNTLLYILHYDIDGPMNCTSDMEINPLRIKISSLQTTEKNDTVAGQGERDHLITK
human αvβ3 receptor, sequence (P06756 891-1048 limits assumed): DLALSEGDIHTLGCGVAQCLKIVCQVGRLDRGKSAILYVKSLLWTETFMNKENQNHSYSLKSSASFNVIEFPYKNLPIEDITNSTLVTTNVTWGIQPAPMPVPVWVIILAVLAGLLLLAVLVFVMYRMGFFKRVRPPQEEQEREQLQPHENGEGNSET
human αvβ3 receptor, sequence (P05106 27-788): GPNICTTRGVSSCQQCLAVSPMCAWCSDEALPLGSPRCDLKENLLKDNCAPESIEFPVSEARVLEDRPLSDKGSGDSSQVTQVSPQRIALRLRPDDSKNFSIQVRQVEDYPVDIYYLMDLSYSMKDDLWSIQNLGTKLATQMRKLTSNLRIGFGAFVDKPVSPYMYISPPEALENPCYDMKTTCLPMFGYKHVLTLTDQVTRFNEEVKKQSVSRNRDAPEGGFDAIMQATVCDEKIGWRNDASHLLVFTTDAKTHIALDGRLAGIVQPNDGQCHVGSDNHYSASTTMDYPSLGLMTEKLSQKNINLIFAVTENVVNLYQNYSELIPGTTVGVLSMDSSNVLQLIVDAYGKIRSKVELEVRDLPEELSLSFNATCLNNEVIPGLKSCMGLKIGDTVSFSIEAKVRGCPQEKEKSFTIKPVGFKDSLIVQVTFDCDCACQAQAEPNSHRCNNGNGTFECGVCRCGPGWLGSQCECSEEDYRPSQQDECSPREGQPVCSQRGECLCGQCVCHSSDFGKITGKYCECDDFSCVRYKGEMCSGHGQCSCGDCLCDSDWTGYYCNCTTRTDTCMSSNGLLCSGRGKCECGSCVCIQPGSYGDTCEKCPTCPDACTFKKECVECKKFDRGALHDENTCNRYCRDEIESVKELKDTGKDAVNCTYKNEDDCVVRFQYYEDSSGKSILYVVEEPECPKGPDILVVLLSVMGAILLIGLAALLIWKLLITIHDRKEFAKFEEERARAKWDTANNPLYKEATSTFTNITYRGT

In the case of `CC(CCc1ccc(OCCC(NC(=O)OCc2ccccc2)C(=O)O)cc1)=NNC1=NCCN1` (mixture of isomers) [ex 1, O-[4-[3-[(4,5-Dihydro-1H-imidazol-2-yl)hydrazono]butyl]-phenyl]-N-[(phenylmethoxy)carbonyl]-homoserine.], the IC50 came to 150 nM. For `CC(CCc1ccc(OCCC(NC(=O)OCc2ccccc2)C(=O)O)cc1)=NNC(=N)N` (mixture of isomers) [ex 2, O-[4-[3-[(Aminoiminomethyl)hydrazono]butyl]phenyl]-N-[(phenylmethoxy)carbonyl]-homoserine], the IC50 stood at 1350 nM. As for `N=C(N)NN=CCCc1ccc(OCCC(NC(=O)OCc2ccccc2)C(=O)O)cc1` (mixture of isomers) [ex 4, O-[4-[3-[(Aminoiminomethyl)hydrazono]propyl]phenyl]-N-[(phenylmethoxy)carbonyl]-homoserine], the IC50 is 450 nM.

On to `CC(Cc1ccc(OCCC(NC(=O)OCc2ccccc2)C(=O)O)cc1)=NNC1=NCCN1` (mixture of isomers) [ex 5], for which the IC50 was found to be 22 nM. Regarding `CC(CCc1cccc(OCCC(NC(=O)OCc2ccccc2)C(=O)O)c1)=NNC1=NCCN1` (mixture of isomers) [ex 9, O-[3-[3-[(4,5-Dihydro-1H-imidazol-2-yl)hydrazono]butyl]-phenyl]-N-[(phenylmethoxy)carbonyl]-homoserine], the IC50 was determined as 2000 nM.

With `CC(Cc1cccc(OCCC(NC(=O)OCc2ccccc2)C(=O)O)c1)=NNC1=NCCN1` (mixture of isomers) [ex 10, O-[3-[2-[(4,5-Dihydro-1H-imidazol-2-yl) hydrazono]propyl]-phenyl]-N-[(phenylmethoxy)carbonyl]-homoserine], the IC50 is 355 nM.

Take `N=C(N)NN=CCCc1cccc(OCCC(NC(=O)OCc2ccccc2)C(=O)O)c1` (mixture of isomers) [ex 11, O-[3-[3-[(Aminoiminomethyl)hydrazono]propyl]phenyl]-N-[(phenylmethoxy)carbonyl]-homoserine]: the IC50 was found to be 3250 nM. `O=C(NC(CCOc1ccc(CC/C=N\NC2=NCCN2)cc1)C(=O)O)OCc1ccccc1` (racemic) [ex 3, O-[4-[3-[(4,5-Dihydro-1H-imidazol-2-yl)hydrazono]propyl]-phenyl]-N-[(phenylmethoxy)carbonyl]-homoserine]: the IC50 was 110 nM. As to `COc1cc(C/C(C)=N/NC2=NCCN2)ccc1OCCC(NC(=O)OCc1ccccc1)C(=O)O` (racemic) [ex 6, O-[4-[2-[(4,5-Dihydro-1H-imidazol-2-yl)hydrazono]propyl]-2-methoxyphenyl]-N-[(phenylmethoxy)carbonyl]-homoserine], the IC50 amounted to 12 nM. With `C/C(Cc1ccc(OCCC(NC(=O)OCc2ccccc2)C(=O)O)c(F)c1)=N\NC1=NCCN1` (racemic) [ex 7, O-[4-[2-[(4,5-Dihydro-1H-imidazol-2-yl)hydrazono]propyl]-2-fluorophenyl]-N-[(phenylmethoxy)carbonyl]-homoserine], the IC50 amounted to 22 nM. On to `O=C(NC(CCOc1cccc(CC/C=N/NC2=NCCN2)c1)C(=O)O)OCc1ccccc1` (stereo not drawn) [ex 12, O-[3-[3-[(4,5-Dihydro-1H-imidazol-2-yl) hydrazono]propyl]-phenyl]-N-[(phenylmethoxy)carbonyl]-homoserine], for which the IC50 was 960 nM. As to `O=C(NC(CCOc1ccc(/C=N/NC2=NCCN2)cc1)C(=O)O)OCc1ccccc1` (stereo not drawn) [ex 13], the IC50 was 292 nM.
